Measurements taken from patent US20180119123A1, “CRISPR/CAS-RELATED METHODS AND COMPOSITIONS FOR TREATING HIV INFECTION AND AIDS” (EDITAS MEDICINE, INC., priority 2015, published 2018).
Entries after “also recorded” stand apart in the source; their conditions may differ.

Tested on: human mobilized peripheral blood CD34^+ HSCs
Assay: Fold change in CD34+ cell number (trypan blue count) 96 hours after Nucleofection
Assay type: cell-based
Experimental: Human CD34^+ HSCs cells from mobilized peripheral blood (AllCells) were thawed into StemSpan Serum-Free Expansion Medium (SFEM™, StemCell Technologies) containing 100 ng/mL each of the following cytokines: human stem cell factor (SCF), thrombopoietin (TPO), and flt-3 ligand (FL) (all from Peprotech). Cells were grown for 3 days in a humidified incubator and 5% CO2 20% O2. […] The published use of UM171 involved prolonged exposure of HSCs to the small molecule for ex vivo expansion of HSCs. In the current experiment, HSCs were exposed to UM171 for 2 hours before and 24 hours after delivery of Cas9 and gRNA plasmid DNA. This UM171 treatment protocol was based on pilot studies performed by the inventors that indicated acute pre-treatment with UM171 before lentivirus vector mediated gene delivery improved HSC viability compared to HSCs treated with vehicle (dimethylsulfoxide, DMSO, Sigma) alone. […] At 96 hours after Nucleofection™, CD34^+ cells were counted for by trypan blue exclusion and divided into 3 portions for the following analyses: a) flow cytometry analysis for assessment of viability by co-staining with 7-Aminoactinomycin-D (7-AAD) and allophycocyanin (APC)-conjugated Annexin-V antibody (ebioscience); b) flow cytometry analysis for maintenance of HSC phenotype (after co-staining with phycoerythrin (PE)-conjugated anti-human CD34 antibody and fluorescein isothicyanate (FITC)-conjugated anti-human CD90, both from BD Bioscience; c) hematopoietic colony forming cell (CFC) analysis by plating 1500 cells in semi-solid methylcellulose based Methocult medium (StemCell Technologies) that supports differentiation of erythroid and myeloid blood cell colonies from HSCs and serves as a surrogate assay to evaluate HSC multipotency and differentiation potential ex vivo; d) genomic DNA analysis for detection of editing at the CCR5 locus. […]

## Cn1nnc(-c2ccc3c(c2)[nH]c2nc(Cc4ccccc4)nc(N[C@H]4CC[C@H](N)CC4)c23)n1 [UM171, (1r,4r)-N1-(2-benzyl-7-(2-methyl-2H-tetrazol-5-yl)-9H-pyrimido[4,5-b]indol-4-yl)cyclohexane-1,4-diamine]
40 nM UM171, S. aureus or S. pyogenes Cas9 and CXCR4 gRNA plasmids
  Fold expansion / proliferation potential of Nucleofected CD34+ cells with UM171 pre-treatment versus without: higher fold-expansion; also recorded: maintain proliferation potential
Nucleofection with wild type Cas9 and CCR5-U43 gRNA plasmid DNA + UM171 treatment (40 nM, 2 hours before and 24 hours after)
  Fold change in cell number of CD34^+ cells (96 hours vs. time 0 cell number): 1.5
